Results taken from ChEMBL document CHEMBL3421577, “Discovery and biological evaluation of tetrahydrothieno[2,3-c]pyridine derivatives as selective metabotropic glutamate receptor 1 antagonists for the potential treatment of neuropathic pain” (Eur J Med Chem, 2015).

Columns and labels:
[1] = biological target: T1, Metabotropic glutamate receptor 1 (Homo sapiens, UniProt Q13255); assay: Antagonist activity at human mGluR1 expressed in human Chem-3 cells assessed as inhibition of L-glutamate-induced calcium release at 10 uM by calcium-5 reagent-based fluorescence assay relative to control; type: functional, cell-based
[2] = biological target: T1, Metabotropic glutamate receptor 1; assay: Antagonist activity at human mGluR1 expressed in human Chem-3 cells assessed as inhibition of L-glutamate-induced calcium release by calcium-5 reagent-based fluorescence assay; type: functional, cell-based
Target sequence in this assay (Q13255 whole entry): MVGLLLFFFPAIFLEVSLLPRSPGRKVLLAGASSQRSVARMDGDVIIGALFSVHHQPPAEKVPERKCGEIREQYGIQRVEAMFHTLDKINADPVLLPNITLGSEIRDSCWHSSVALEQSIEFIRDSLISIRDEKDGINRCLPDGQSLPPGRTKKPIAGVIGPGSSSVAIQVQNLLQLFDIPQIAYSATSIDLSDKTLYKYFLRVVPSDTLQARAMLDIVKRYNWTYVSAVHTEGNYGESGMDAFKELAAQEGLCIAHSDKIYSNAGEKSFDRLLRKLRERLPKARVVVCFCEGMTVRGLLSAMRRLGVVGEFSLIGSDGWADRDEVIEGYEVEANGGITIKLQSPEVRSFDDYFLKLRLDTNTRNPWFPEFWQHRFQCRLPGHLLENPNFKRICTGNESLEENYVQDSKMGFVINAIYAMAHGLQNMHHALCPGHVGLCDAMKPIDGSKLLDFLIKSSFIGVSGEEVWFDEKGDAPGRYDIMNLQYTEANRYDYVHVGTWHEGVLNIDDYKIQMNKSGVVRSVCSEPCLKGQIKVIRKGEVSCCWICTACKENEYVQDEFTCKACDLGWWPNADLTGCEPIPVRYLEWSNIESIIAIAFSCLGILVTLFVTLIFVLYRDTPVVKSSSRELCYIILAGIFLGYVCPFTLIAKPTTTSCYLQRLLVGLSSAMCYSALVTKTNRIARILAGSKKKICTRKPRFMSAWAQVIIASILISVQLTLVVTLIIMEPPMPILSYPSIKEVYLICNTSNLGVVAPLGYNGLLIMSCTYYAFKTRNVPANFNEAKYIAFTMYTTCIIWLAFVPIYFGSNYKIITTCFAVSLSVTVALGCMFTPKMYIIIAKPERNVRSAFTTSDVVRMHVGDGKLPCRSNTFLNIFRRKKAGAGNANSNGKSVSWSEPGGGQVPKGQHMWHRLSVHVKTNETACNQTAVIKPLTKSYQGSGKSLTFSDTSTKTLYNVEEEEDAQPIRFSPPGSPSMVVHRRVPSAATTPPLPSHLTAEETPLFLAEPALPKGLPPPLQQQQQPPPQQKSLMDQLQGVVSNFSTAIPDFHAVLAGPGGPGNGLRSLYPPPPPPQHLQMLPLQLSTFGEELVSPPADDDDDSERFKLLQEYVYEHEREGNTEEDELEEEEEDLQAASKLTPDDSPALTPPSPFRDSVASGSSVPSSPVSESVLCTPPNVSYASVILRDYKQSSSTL

[3] = biological target: T2, CYP1A2 (Homo sapiens, UniProt P05177); assay: Inhibition of recombinant human CYP1A2 assessed as remaining activity at 10 uM preincubated for 5 mins followed by substrate and NADP addition measured after 20 mins by fluorescence assay relative to control; type: ADME; details: read-out: Activity
T2 sequence (P05177 whole entry): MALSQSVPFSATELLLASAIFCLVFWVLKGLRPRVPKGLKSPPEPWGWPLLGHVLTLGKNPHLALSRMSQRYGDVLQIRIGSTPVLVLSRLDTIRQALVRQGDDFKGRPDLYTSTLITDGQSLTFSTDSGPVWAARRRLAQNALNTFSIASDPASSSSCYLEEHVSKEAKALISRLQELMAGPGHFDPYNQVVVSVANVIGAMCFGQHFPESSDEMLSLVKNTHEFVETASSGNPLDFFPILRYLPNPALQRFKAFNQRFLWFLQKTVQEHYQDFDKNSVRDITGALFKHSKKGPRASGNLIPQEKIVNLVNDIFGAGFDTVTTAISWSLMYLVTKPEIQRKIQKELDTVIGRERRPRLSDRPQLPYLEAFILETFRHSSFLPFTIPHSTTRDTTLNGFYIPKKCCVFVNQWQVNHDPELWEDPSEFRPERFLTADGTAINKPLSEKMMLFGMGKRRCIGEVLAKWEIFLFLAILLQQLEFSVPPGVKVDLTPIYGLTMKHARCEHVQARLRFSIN

[4] = biological target: CYP2C19 (Homo sapiens, UniProt P33261); assay: Inhibition of recombinant human CYP2C19 assessed as remaining activity at 10 uM preincubated for 5 mins followed by substrate and NADP addition measured after 20 mins by fluorescence assay relative to control; type: ADME; details: read-out: Activity
[5] = Metabolic stability in human liver microsomes assessed as compound remaining at 1 uM after 30 mins by LC-MS/MS analysis in presence of NADPH; type: ADME; details: read-out: Stability
[6] = biological target: 5-hydroxytryptamine receptor 2A (Homo sapiens) (UniProt P28223); assay: Agonist activity at 5HT2A receptor (unknown origin) at 12.5 uM relative to control
[7] = biological target: 5-hydroxytryptamine receptor 2C (Homo sapiens) (UniProt P28335); assay: Agonist activity at 5HT2C receptor (unknown origin) at 12.5 uM relative to control
5-hydroxytryptamine receptor 2C (Homo sapiens), sequence (P28335 whole entry): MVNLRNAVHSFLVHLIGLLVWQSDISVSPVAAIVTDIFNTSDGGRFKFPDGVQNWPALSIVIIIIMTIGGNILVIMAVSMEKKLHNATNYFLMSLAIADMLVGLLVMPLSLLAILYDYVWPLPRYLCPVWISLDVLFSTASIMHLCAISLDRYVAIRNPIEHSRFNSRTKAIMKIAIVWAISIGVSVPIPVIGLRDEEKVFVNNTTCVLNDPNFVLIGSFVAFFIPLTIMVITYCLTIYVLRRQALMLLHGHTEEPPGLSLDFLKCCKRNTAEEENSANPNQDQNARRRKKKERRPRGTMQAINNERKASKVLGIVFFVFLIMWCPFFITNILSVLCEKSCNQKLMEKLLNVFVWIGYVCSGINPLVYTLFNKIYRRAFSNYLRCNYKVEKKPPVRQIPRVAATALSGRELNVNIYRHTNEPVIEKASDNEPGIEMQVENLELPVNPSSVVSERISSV

[8] = biological target: Alpha-1A adrenergic receptor (Homo sapiens) (UniProt P35348); assay: Agonist activity at ADRA1A (unknown origin) at 12.5 uM relative to control
Alpha-1A adrenergic receptor (Homo sapiens), sequence (P35348 whole entry): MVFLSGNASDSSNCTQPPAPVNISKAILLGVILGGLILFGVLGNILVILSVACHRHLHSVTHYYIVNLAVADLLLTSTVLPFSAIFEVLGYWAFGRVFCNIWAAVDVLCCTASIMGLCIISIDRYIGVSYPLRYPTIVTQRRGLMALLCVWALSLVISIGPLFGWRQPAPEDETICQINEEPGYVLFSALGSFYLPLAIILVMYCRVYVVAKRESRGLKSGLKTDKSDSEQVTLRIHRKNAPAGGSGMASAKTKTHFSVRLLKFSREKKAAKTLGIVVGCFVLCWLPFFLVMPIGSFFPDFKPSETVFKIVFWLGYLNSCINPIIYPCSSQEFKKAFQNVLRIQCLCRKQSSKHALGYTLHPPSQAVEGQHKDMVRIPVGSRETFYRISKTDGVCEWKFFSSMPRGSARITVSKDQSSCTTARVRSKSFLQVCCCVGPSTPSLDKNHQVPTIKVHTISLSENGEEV

[9] = biological target: B2 bradykinin receptor (Homo sapiens) (UniProt P30411); assay: Agonist activity at BDKR2 (unknown origin) at 12.5 uM relative to control
B2 bradykinin receptor (Homo sapiens), sequence (P30411 whole entry): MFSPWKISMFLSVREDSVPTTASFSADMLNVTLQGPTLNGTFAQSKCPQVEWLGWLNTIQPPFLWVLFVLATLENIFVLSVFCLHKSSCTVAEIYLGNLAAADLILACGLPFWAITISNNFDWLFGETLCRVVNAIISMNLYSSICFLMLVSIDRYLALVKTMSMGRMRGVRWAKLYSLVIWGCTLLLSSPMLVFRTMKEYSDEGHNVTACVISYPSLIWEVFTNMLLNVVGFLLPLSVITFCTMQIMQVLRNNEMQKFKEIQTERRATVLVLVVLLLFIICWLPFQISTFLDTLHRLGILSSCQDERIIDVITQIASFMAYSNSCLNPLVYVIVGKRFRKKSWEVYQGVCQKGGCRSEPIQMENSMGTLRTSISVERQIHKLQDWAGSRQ

[10] = biological target: Cannabinoid receptor 1 (Homo sapiens) (UniProt P21554); assay: Agonist activity at CB1 receptor (unknown origin) at 12.5 uM relative to control
[11] = biological target: C-C chemokine receptor type 2 (Homo sapiens) (UniProt P41597); assay: Agonist activity at CCR2B (unknown origin) at 12.5 uM relative to control
C-C chemokine receptor type 2 (Homo sapiens), sequence (P41597 whole entry, looked up): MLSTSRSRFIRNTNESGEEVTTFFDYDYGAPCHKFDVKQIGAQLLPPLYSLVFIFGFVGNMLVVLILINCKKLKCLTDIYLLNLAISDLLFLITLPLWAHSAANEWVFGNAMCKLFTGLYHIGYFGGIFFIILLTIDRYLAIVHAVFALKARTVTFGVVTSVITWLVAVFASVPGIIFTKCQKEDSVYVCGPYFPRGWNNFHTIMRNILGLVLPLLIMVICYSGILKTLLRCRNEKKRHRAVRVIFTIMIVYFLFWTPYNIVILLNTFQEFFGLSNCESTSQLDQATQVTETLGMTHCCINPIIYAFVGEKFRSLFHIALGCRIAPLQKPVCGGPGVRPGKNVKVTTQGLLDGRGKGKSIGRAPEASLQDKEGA

[12] = biological target: C-X-C chemokine receptor type 2 (Homo sapiens) (UniProt P25025); assay: Agonist activity at CXCR2 (unknown origin) at 12.5 uM relative to control
C-X-C chemokine receptor type 2 (Homo sapiens), sequence (P25025 whole entry): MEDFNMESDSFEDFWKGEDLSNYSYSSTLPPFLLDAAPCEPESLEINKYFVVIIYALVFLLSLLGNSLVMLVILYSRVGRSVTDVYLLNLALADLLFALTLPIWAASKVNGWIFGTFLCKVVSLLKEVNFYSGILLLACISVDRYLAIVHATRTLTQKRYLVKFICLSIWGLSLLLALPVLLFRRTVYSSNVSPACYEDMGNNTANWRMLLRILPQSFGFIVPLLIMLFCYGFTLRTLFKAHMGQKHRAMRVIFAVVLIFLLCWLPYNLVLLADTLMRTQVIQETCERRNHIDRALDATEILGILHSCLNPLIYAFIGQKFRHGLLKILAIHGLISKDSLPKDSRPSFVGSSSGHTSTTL

[13] = biological target: C-X-C chemokine receptor type 4 (Homo sapiens) (UniProt P61073); assay: Agonist activity at CXCR4 (unknown origin) at 12.5 uM relative to control
C-X-C chemokine receptor type 4 (Homo sapiens), sequence (P61073 whole entry): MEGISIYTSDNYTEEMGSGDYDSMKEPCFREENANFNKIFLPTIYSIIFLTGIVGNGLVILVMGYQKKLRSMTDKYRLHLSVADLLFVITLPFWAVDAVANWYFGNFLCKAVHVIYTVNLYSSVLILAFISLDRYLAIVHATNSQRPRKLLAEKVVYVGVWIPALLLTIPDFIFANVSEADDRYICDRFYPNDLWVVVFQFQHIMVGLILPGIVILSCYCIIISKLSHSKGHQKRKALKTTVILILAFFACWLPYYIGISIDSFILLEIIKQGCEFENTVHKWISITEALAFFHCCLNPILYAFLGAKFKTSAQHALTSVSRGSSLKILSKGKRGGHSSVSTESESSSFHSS

[14] = biological target: Muscarinic acetylcholine receptor M1 (Homo sapiens) (UniProt P11229); assay: Agonist activity at M1 receptor (unknown origin) at 12.5 uM relative to control
Muscarinic acetylcholine receptor M1 (Homo sapiens), sequence (P11229 whole entry): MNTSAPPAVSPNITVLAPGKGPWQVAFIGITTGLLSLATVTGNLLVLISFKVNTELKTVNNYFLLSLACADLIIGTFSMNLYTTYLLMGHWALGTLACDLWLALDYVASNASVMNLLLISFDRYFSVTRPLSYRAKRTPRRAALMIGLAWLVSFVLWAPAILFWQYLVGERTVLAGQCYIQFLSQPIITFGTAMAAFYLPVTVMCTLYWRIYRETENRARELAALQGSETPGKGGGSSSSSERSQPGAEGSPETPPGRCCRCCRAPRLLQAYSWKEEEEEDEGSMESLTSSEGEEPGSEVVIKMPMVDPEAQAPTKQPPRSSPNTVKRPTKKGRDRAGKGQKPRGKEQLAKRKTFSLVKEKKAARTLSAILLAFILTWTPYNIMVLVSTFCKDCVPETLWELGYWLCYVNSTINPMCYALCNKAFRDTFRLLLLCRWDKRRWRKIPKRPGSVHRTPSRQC

[15] = biological target: Muscarinic acetylcholine receptor M5 (Homo sapiens) (UniProt P08912); assay: Agonist activity at M5 receptor (unknown origin) at 12.5 uM relative to control
Muscarinic acetylcholine receptor M5 (Homo sapiens), sequence (P08912 whole entry): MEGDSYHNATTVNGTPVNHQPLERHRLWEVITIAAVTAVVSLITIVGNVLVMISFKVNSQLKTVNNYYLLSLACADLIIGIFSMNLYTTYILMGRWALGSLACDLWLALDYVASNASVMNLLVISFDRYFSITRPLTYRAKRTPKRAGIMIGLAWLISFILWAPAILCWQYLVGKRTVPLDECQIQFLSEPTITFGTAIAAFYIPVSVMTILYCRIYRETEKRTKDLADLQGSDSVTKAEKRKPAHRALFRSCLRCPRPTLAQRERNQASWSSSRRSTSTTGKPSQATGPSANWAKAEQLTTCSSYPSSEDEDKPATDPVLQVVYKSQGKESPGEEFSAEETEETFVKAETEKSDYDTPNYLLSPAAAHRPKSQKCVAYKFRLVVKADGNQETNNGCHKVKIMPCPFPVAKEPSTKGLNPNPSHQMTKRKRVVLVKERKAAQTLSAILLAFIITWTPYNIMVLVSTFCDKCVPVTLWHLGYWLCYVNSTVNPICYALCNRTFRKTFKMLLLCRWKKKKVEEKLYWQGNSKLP

[16] = biological target: Substance-P receptor (Homo sapiens) (UniProt P25103); assay: Agonist activity at NK1 receptor (unknown origin) at 12.5 uM relative to control
Substance-P receptor (Homo sapiens), sequence (P25103 whole entry): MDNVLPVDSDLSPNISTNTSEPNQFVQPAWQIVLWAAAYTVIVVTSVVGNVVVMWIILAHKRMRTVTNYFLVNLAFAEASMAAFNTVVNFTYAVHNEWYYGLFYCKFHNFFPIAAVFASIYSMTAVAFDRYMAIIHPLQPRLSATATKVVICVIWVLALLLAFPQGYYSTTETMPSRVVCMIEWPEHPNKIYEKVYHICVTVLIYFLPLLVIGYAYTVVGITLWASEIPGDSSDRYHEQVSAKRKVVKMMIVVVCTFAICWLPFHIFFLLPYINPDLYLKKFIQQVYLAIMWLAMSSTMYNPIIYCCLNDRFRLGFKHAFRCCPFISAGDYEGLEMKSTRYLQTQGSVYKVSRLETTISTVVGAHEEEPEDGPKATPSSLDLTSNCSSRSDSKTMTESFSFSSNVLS

[17] = biological target: 5-hydroxytryptamine receptor 2C (Homo sapiens) (UniProt P28335); assay: Antagonist activity at 5HT2C receptor (unknown origin) at 10 uM relative to control
[18] = biological target: Alpha-1A adrenergic receptor (Homo sapiens) (UniProt P35348); assay: Antagonist activity at ADRA1A (unknown origin) at 10 uM relative to control
[19] = biological target: C-C chemokine receptor type 2 (Homo sapiens) (UniProt P41597); assay: Antagonist activity at CCR2B (unknown origin) at 10 uM relative to control
[20] = biological target: C-X-C chemokine receptor type 2 (Homo sapiens) (UniProt P25025); assay: Antagonist activity at CXCR2 (unknown origin) at 10 uM relative to control
[21] = biological target: C-X-C chemokine receptor type 5 (Homo sapiens) (UniProt P32302); assay: Antagonist activity at CXCR5 (unknown origin) at 10 uM relative to control
[22] = biological target: Muscarinic acetylcholine receptor M1 (Homo sapiens) (UniProt P11229); assay: Antagonist activity at M1 receptor (unknown origin) at 10 uM relative to control
[23] = biological target: Muscarinic acetylcholine receptor M5 (Homo sapiens) (UniProt P08912); assay: Antagonist activity at M5 receptor (unknown origin) at 10 uM relative to control
[24] = biological target: Delta-type opioid receptor (Homo sapiens) (UniProt P41143); assay: Antagonist activity at OPRD1 receptor (unknown origin) at 10 uM relative to control
[25] = test system: Rattus norvegicus; assay: Analgesic activity in rat spinal nerve ligation model of neuropathic pain assessed as recovery from mechanical allodynia at 100 mg/kg, po administered on day 14 post ligation surgery measured after 3 hrs relative to control; type: functional
[26] = AUClast in Sprague-Dawley rat at 10 mg/kg, iv by LC-MS/MS analysis; type: ADME, organism-based; parameters: time 0 - last, dose 10 mg/kg, route intravenous; details: plasma
[27] = Terminal half life in Sprague-Dawley rat at 10 mg/kg, iv by LC-MS/MS analysis; type: ADME, organism-based; parameters: dose 10 mg/kg, route intravenous; details: in vivo, read-out: beta t1/2
[28] = Apparent volume of distribution at steady state in Sprague-Dawley rat at 10 mg/kg, iv by LC-MS/MS analysis; type: ADME, organism-based; parameters: dose 10 mg/kg, route intravenous; details: in vivo, read-out: Vdss(app)
[29] = Mean residence time in Sprague-Dawley rat at 10 mg/kg, iv by LC-MS/MS analysis; type: ADME, organism-based; parameters: dose 10 mg/kg, route intravenous; details: in vivo
[30] = Total clearance in Sprague-Dawley rat at 10 mg/kg, iv by LC-MS/MS analysis; type: ADME, organism-based; parameters: dose 10 mg/kg, route intravenous; details: in vivo
[31] = Drug excretion in Sprague-Dawley rat at 10 mg/kg, iv by LC-MS/MS analysis; type: ADME, organism-based; parameters: dose 10 mg/kg, route intravenous; details: in vivo, read-out: Drug excretion
[32] = Bioavailability in Sprague-Dawley rat at 10 mg/kg, iv by LC-MS/MS analysis; type: ADME, organism-based; details: in vivo
[33] = Drug uptake in Sprague-Dawley rat brain at 10 mg/kg, po measured at 2 hrs by LC-MS/MS analysis; type: ADME, organism-based; parameters: dose 10 mg/kg, route oral; details: read-out: Drug uptake
[34] = Ratio of drug level in brain to plasma in Sprague-Dawley rat at 10 mg/kg, po measured at 2 hrs by LC-MS/MS analysis; type: ADME, organism-based; parameters: dose 10 mg/kg, route oral; details: read-out: BPR

Work on `Cc1cc(C(=O)N2CCc3c(sc(NCc4ccccc4)c3C#N)C2)[nH]n1` yielded an inhibition [1] of 71.2%, an IC50 [2] of 1420 nM and an activity at 20 min, 10 µM [3] of 72.7%. For the same compound, the activity at 20 min, 10 µM [4] was 14.2%, the remaining at 0.5 h, 1 µM [5] was 77.6% and the Activity [6] was -4%. The Activity [7] was -0.3%, the Activity [8] was 0.3% and the Activity [9] was 0.7%. It also gave an Activity [10] of 0.3%, an Activity [11] of -1.4% and an Activity [12] of -0.9%. For the same compound, the Activity [13] was -3.1%, the Activity [14] was -0.5% and the Activity [15] was 0.9%. For the same compound, the Activity [16] was 0.8%, the inhibition [17] was -9.4% and the inhibition [18] was 9.2%. The inhibition [19] was -0.1%, the inhibition [20] was -4.6% and the inhibition [21] was 4.5%. It also gave an inhibition [22] of -0.6%, an inhibition [23] of 7.7% and an inhibition [24] of 3.8%. The Activity [25] was 60%, the AUC(0-t) [26] was 9060 ng·h/mL and the half-life [27] was 1.83 h. The Vd [28] was 1.66 L/kg, the MRT [29] was 1.31 h and the clearance [30] was 20.1 mL/min/kg. It also gave a dose excreted [31] of 0%, a bioavailability [32] of 45.8% and a concentration at 2 h [33] of 156 ng/mL. It also gave a Kp at 2 h [34] of 0.13.
